In patent US10994016B2, “Graphene oxide mediated cellular delivery of gadolinium-labeled molecules” (Northwestern University, priority 2015, dated 2021):
pIC50: −log10 of the molar value. Read-outs that look alike come from different tables or passages of the source.

Key:
HeLa cells [1] = test: Cell MR imaging of Magnevist-labeled cells in agarose phantoms (6-well labeling, Gd content by ICP-MS, 7 T); type: cell-based; details: for Labeling achieved in the imaging study: after centrifugation; for Sensitivity for labeled cells on T1-weighted MRI: 7T
Experimental: HeLa cells were labeled by Magnevist with and without 150 nm GO co-incubation in 6-well plates. 2 plates seeded at 300,000 cells per well were needed to produce a sufficient number of cells for imaging. For the condition of GO co-incubation, 4500 μL of Magnevist-GO mixture was prepared at a concentration of 93.3 mM Magnevist and 27 μg/mL GO. The mixture was allowed to adsorb for at least 15 minutes. 375 μL of the Magnevist-GO mixture was added to 625 μL of media in each well to reach a final concentration of 35 mM Magnevist and 10 μg/mL GO. The cells were incubated with the mixture for […]. To harvest, cells were rinsed in-plate three times with 3000 μL PBS and trypsinized using 400 μL 0.25% TrypLE. After 5 minutes of incubation at 37° C., 600 μL of media was added to each well and mixed by a pipette to ensure that all cells were lifted into suspension. After combining all the wells into a 12 mL cell suspension, 3 aliquots of 25 μL each were obtained for cell counting by Guava. 175 μL of Guava ViaCount reagent was used for dilution. Additionally, 200 μL of the cell suspension was transferred to a 1.5-mL microcentrifuge tube, centrifuged at 1000 RPM for 5 min (Thermo Scientific, Model Legend Micro 21R), and re-suspended in 200 μL media to wash the cells. From the washed cell suspension, two aliquots of 25 μL each were used for cell counting by Guava and two aliquots of 25 μL each were used for Gd content analysis by ICP-MS. For the condition without GO co-incubation, the same procedures were followed except GO was replaced by Milli-Q water.
To create the cellular phantoms in agarose, a 1% media-agarose was prepared by mixing media and 2% low melting-point agarose (Life Technologies, Carlsbad, Calif.) in equal parts. At 7 T, the media-agrose has a T1 of 2952±152 ms and a T2 of 96±1 ms. In a 4 mL 15×45 mm glass vial, 2 mL of media-agarose was gelled at room temperature around a 5 mm OD NMR tube that was later removed to create a cylindrical bore. To fill the bore, the suspension of labeled cells was centrifuged at 1000 RPM for 5 minutes. After removing the supernatant, the cell pellet was re-suspended in media-agarose and further diluted to densities of 10,000, 5,000, 2,000, 500, and 100 cells/μL. 300 μL of each cell suspension was used to fill the bores in the 4 mL vials. After filling, the vials were cooled to 4° C. for 20 minutes to solidify the suspension. Approximately 3 mL of media was added on top of the media-agarose to completely fill the vial.
T1- and T2-weighted imaging were performed on a Bruker Pharmscan 7.05 T imaging spectrometer fitted with shielded gradient coils and a RF RES 300 1H 089/023 quadrature transceiver volume coil at 25° C. (Bruker BioSpin, Billerica, Mass.). Imaging was performed using a Rapid Acquisition with Refocused Echoes (RARE) pulse sequence. For T1-weighted imaging, the imaging parameters were TR=200 ms, TE=11.7 ms, NEX=1, FOV=21×21 mm^2, slice thickness=2 mm, and matrix size=256×256. For T2-weighted HDR, the imaging parameters were TR=5000 ms, TE=100 ms, NEX=1, FOV=15×15 mm^2, slice thickness=2 mm, and matrix size=256×256. The signal intensities of the acquired images were normalized such that the blank media-agarose has the same intensity across all images. Image processing was performed using ImageJ (NIH, Bethesda, Md.). T1 and T2-weighted images were processed separately.

HeLa cells [2] = test: 24 hour cytotoxicity assay (Guava ViaCount); type: cell-based; details: for pIC50: read-out: IC50 (viability)
Experimental: FIG. 11. 24 hour cytotoxicity assay using HeLa cells at increasing Magnevist and GO concentrations. […] The maximum GO dose required for cellular delivery enhancement is 20 μg/mL, or an order of magnitude below the highest test dose. The 150 nm GO was used for the study.
FIGS. 12A-B. Cytotoxicity of Magnevist. A) Viability of HeLa cells at increasing Magnevist concentration as measured by the Guava ViaCount Assay. Analysis includes floating cells at the end of the 24-hr incubation period. The fitted IC50 was 80 mM. […] Fitting was performed using GraphPad Prism software. All incubations were performed for 24 hours. Error bars show SD.
Cell counting was conducted using a Guava EasyCyte Mini Personal Cell Analyzer (EMD Millipore, Billerica, Mass.). After cell harvesting, an aliquot (50 μL) of the cell suspensions was mixed with Guava ViaCount reagent (150 μL) and allowed to stain at room temperature for at least 5 minutes. The dilution factor of 4 was determined based upon optimum machine performance (20-150 cells/μL). After vortexing for 10 sec, stained cells were counted using a Guava EasyCyte Mini Personal Cell Analyzer (PCA) using the ViaCount software module. For each sample, 1000 events were acquired. Gating of live/dead and cell/debris classifications were performed manually by the operator.

Q: Which “Improvement of labeling with GO over Magnevist alone” value (HeLa cells [1]; 35 mM Magnevist, 10 μg/mL GO) does the source give for “Diethylenetriaminepentaacetic acid gadolinium(III) dihydrogen salt hydrate [Molecule 11]” here?
A: 57%

Q: What about the “Cellular Gd(III) payload relative to Gd(III)-DNA gold nanoparticles, Gd(III)-labeled polymer-liposomes, gadonanotubes and gadofullerenols” value (HeLa cells [1]; GO co-incubation) of the same substance?
A: 30-50 fold

Q: What about the “Increase of MR sensitivity for labeled cells compared to Magnevist alone” value (HeLa cells [1]; GO co-incubation) of the same substance?
A: ~10 fold

Q: And the “Labeling achieved in the imaging study” value (HeLa cells [1]; Magnevist alone (35 mM), without GO)?
A: 30 fmol Gd/cell

Q: And the “Enhancement by GO” value (HeLa cells [1]; imaging study, before centrifugation)?
A: 2.2 ×

Q: What about the “Labeling achieved in the imaging study” value (HeLa cells [1]; with GO co-incubation (10 μg/mL), 35 mM Magnevist) of the same substance?
A: 47 fmol Gd/cell

Q: And the “Sensitivity for labeled cells on T1-weighted MRI” value (HeLa cells [1]; with GO co-incubation (150 nm GO))?
A: 500 cells/μL

Q: And the “Loading in the imaging study” value (HeLa cells [1]; with GO, before centrifugation)?
A: 153 fmol/cell

Q: And the “Sensitivity for labeled cells on T1-weighted MRI” value (HeLa cells [1]; without GO)?
A: 5000 cells/μL

Q: What about the “Loading in the imaging study” value (HeLa cells [1]; without GO, before centrifugation) of the same substance?
A: 69 fmol/cell

Q: And the pIC50 (HeLa cells [2]; 24 h, after in-plate washing by PBS, floating cells not included)?
A: 1.00

Q: And the pIC50 (HeLa cells [2]; 24 h, analysis includes floating cells)?
A: 1.10

Q: What about the Cytotoxicity (HeLa cells [2]; 24 h, up to 35 mM Magnevist and 250 μg/mL GO (150 nm GO)) of the same substance?
A: No significant cytotoxicity

Q: And the Cytotoxicity (HeLa cells [2]; Magnevist increased to 70 mM, with GO)?
A: synergistic cytotoxicity
